These results are taken from BindingDB's records for doi:10.1021/jm061299k (Bayer Healthcare Pharmaceuticals, 2007).

As a reminder, the EC50 is the concentration needed to bring the measured effect to its halfway point.

Some results are limits rather than exact numbers.

The first test has as its target Peroxisome proliferator-activated receptor gamma (Mus musculus) (UniProt P37238). Put plainly: PPARgamma activity was assessed by the cell-based insulin receptor binding assay (IRBA) in mouse 3T3-L1 cells, measuring the increase in the number of insulin receptors.
Details: not given
Regarding `COc1cc(-c2nc(C)c(C(=O)N(C)C)s2)ccc1OCCCOc1ccc2c(c1)CC[C@H]2CC(=O)O` [2-[(1S)-5-(3-{4-[5-(dimethylcarbamoyl)-4-methyl-1,3-thiazol-2-yl]-2-methoxyphenoxy}propoxy)-2,3-dihydro-1H-inden-1-yl]acetic acid], the EC50 is 312 nM. Regarding `O=C(O)C[C@@H]1CCc2cc(OCCCOc3ccc4ncoc4c3)ccc21` [2-[(1S)-5-[3-(1,3-benzoxazol-6-yloxy)propoxy]-2,3-dihydro-1H-inden-1-yl]acetic acid], the EC50 is over 10000 nM. Same read-out and setting: the figure for `CCCc1c(OCCCOc2ccc3c(c2)CC[C@H]3CC(=O)O)ccc2c1ccn2C` [2-[(1S)-5-{3-[(1-methyl-4-propyl-1H-indol-5-yl)oxy]propoxy}-2,3-dihydro-1H-inden-1-yl]acetic acid] is over 10000 nM; for `O=C(O)C[C@@H]1CCc2cc(OCCCOc3ccccc3)ccc21` [2-[(1S)-5-(3-phenoxypropoxy)-2,3-dihydro-1H-inden-1-yl]acetic acid] it is over 10000 nM. With `O=C(O)C[C@@H]1CCc2cc(OCCCOc3ccc4cnoc4c3)ccc21` [2-[(1S)-5-[3-(1,2-benzoxazol-6-yloxy)propoxy]-2,3-dihydro-1H-inden-1-yl]acetic acid], the EC50 was over 10000 nM. Compound `Cc1ccc(OCCCOc2ccc3c(c2)CC[C@H]3CC(=O)O)cc1C` [2-[(1S)-5-[3-(3,4-dimethylphenoxy)propoxy]-2,3-dihydro-1H-inden-1-yl]acetic acid] registered an EC50 of over 10000 nM.

Compound `O=C(O)C[C@@H]1CCc2cc(OCCCOc3ccc4cc[nH]c4c3)ccc21` [2-[(1S)-5-[3-(1H-indol-6-yloxy)propoxy]-2,3-dihydro-1H-inden-1-yl]acetic acid] gave an EC50 of over 10000 nM. Still for that read-out and setting: the figure for `CCCc1cc(-c2nc(C)c(C(=O)N(C)C)s2)ccc1OCCCOc1ccc2c(c1)CC[C@H]2CC(=O)O` [2-[(1S)-5-(3-{4-[5-(dimethylcarbamoyl)-4-methyl-1,3-thiazol-2-yl]-2-propylphenoxy}propoxy)-2,3-dihydro-1H-inden-1-yl]acetic acid] is 20 nM.

In another test the target is T1, Peroxisome proliferator-activated receptor delta (Homo sapiens, UniProt Q03181).
T1 sequence (Q03181 whole entry): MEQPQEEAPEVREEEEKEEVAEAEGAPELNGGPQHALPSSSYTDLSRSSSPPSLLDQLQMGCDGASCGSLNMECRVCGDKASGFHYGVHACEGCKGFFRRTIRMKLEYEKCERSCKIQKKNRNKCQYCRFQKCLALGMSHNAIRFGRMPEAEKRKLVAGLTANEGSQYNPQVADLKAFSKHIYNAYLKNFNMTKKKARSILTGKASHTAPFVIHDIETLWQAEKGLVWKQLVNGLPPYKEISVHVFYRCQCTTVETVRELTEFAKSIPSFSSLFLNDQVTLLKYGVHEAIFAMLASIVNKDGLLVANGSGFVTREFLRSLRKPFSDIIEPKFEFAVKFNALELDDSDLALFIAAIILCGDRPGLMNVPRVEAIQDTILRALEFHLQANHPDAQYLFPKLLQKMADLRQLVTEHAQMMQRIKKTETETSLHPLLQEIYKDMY
The experiment in a line: PPAR FRET Assay. The settings on record: 25 °C. As to the method:
(§1) Activity was assessed by measuring the human PPAR ligand binding domain with the co-activator protein. Europium labeled anti-GST antibody, streptavidin-labeled APC, biotin-labeled co-activator protein, and PPAR-GST were incubated at room temperature in buffer in the presence or absence of test compound.
As to `CCCc1cc(-c2nc3c(s2)CCCO3)ccc1OCCCOc1ccc2c(c1)CC[C@H]2CC(=O)O` [2-[(1S)-5-[3-(2-propyl-4-{5H,6H,7H-pyrano[2,3-d][1,3]thiazol-2-yl}phenoxy)propoxy]-2,3-dihydro-1H-inden-1-yl]acetic acid], a half-maximal response (EC50) required 4 nM.

The next test has as its target T2, Peroxisome proliferator-activated receptor alpha (Homo sapiens, UniProt Q07869).
T2 sequence (Q07869 whole entry): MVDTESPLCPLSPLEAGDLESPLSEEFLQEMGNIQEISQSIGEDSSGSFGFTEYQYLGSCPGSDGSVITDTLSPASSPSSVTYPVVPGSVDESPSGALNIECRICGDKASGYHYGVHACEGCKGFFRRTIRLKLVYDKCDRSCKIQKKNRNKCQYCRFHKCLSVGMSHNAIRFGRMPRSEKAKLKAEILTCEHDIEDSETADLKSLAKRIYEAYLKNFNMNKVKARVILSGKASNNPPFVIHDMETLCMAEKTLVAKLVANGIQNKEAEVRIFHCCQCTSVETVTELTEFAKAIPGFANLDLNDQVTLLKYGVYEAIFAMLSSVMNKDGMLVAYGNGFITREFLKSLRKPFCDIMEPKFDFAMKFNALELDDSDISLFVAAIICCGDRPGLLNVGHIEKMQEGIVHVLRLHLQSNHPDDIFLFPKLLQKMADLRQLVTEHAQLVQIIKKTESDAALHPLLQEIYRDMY
The experiment in a line: PPAR FRET Assay. The settings on record: 25 °C. As to the method:
as §1
The compound `CCCc1cc(-c2nc3c(s2)CCCO3)ccc1OCCCOc1ccc2c(c1)CC[C@H]2CC(=O)O` [2-[(1S)-5-[3-(2-propyl-4-{5H,6H,7H-pyrano[2,3-d][1,3]thiazol-2-yl}phenoxy)propoxy]-2,3-dihydro-1H-inden-1-yl]acetic acid] displayed an EC50 of 101 nM.
